Reference: ChEMBL document CHEMBL1201862, “PubChem BioAssay data set” (2004)
Blank lines part the entries; values can stand above or below the compound they belong to. Activity calls are given as the source filed them.

What was measured:
Tumor necrosis factor = Tumor necrosis factor (Homo sapiens, UniProt P01375); assay: analog potency on TNFa NF-kB signaling – cell-based, revised, SAR follow-up (AID 2337); assay type: functional
[1] = biological target: Nucleotide-binding oligomerization domain-containing protein 1 (Homo sapiens, UniProt Q9Y239); assay: blockers of NOD1 pathway activity – revised, SAR follow-up (AID 2333); assay type: functional
Sequence of Nucleotide-binding oligomerization domain-containing protein 1 (Q9Y239 whole entry, the tested form may be a part): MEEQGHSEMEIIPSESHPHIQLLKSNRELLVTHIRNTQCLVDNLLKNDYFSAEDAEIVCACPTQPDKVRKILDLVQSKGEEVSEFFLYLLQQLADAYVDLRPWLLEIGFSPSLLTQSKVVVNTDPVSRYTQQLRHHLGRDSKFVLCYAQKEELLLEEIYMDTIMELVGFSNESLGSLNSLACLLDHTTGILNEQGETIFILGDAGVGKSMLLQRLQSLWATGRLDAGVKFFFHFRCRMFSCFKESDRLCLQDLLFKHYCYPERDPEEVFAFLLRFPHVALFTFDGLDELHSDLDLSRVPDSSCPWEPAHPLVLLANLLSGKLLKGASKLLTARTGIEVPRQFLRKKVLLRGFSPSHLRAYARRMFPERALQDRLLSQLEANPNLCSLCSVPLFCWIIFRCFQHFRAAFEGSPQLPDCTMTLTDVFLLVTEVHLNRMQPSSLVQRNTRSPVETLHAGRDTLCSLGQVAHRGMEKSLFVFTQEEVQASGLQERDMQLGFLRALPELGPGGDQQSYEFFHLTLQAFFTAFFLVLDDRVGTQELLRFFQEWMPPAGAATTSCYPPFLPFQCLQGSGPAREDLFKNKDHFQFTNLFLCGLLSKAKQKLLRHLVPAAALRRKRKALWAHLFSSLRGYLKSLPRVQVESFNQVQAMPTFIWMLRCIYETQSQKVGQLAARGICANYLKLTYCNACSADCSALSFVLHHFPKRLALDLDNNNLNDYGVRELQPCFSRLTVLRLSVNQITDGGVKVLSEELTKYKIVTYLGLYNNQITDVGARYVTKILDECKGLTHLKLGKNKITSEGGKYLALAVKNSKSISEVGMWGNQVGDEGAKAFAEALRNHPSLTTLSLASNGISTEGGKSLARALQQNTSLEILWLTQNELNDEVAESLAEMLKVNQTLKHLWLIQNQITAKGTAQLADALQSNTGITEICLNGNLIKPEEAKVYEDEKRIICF

HEK293 = assay: cells; settings: Homo sapiens;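 further: cells exposed to compound for 14 hours overnight before viability readout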
[2] = Luminescence Cell-Based Dose Retest to Confirm Inhibitors of Cancer Stem Cells. [Related pubchem assays (depositor defined):AID2717, AID2721]; assay type: functional; settings: Homo sapiens
[3] = viability loss of HMLE_sh_eGFP cells – cell-based, luminescence, counter-screen for HMLE_sh_ECad selective toxicity project, dose response (AID 463074); assay type: functional, Homo sapiens;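 further: HMLE human mammary epithelial cells expressing control shRNA against eGFP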
Trypsin = Trypsin (Sus scrofa, UniProt P00761); assay: trypsin protease activity blockade – biochemical, quenched peptide fluorescence, cherry-pick, selectivity assay for Rce1 protease inhibitor project, dose response (AID 488789)
Sequence of Trypsin (P00761 whole entry): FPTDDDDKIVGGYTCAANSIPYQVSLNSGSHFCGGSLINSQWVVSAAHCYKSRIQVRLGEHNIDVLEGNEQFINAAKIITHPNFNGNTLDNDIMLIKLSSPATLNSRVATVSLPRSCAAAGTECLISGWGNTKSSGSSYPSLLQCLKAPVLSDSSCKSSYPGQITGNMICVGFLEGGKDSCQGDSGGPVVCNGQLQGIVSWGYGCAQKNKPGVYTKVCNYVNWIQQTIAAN

CAAX prenyl protease 1 = CAAX prenyl protease 1 (Saccharomyces cerevisiae S288c, UniProt P47154); assay: yeast CAAX protease Ste24 inhibition – biochemical, S. cerevisiae, plate reader, cherry-pick, dose response (AID 488815)
Sequence of CAAX prenyl protease 1 (P47154 whole entry): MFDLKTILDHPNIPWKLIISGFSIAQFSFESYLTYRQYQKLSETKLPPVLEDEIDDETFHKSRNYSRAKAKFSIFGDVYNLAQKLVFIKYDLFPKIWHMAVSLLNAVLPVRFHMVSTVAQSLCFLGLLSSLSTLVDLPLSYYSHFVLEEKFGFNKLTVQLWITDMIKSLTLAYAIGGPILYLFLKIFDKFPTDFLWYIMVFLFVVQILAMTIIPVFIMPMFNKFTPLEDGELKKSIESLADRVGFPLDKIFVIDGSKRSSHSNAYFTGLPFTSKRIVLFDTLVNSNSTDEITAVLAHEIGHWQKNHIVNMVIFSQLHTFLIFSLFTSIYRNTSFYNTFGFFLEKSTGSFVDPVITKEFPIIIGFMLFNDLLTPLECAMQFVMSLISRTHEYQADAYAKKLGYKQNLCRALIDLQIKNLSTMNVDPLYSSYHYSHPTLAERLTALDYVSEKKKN

CAAX prenyl protease 2 = CAAX prenyl protease 2 (Homo sapiens, UniProt Q9Y256); assay: inhibition of Ras-converting CAAX protease Rce1 – biochemical, yeast membranes, quenched-peptide fluorescence, cherry-pick, dose response (AID 588849)
Sequence of CAAX prenyl protease 2 (Q9Y256 whole entry): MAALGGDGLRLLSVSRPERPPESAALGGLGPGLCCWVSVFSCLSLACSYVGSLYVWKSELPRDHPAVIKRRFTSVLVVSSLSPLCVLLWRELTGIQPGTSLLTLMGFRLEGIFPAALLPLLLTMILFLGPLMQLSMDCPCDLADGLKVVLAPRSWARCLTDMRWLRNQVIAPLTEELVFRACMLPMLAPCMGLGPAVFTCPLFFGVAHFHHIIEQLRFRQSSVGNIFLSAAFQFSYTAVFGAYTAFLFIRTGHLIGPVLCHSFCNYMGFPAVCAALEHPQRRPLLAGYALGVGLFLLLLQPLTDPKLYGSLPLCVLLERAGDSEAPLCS

[4] = biological target: Intestinal-type alkaline phosphatase (Mus musculus, UniProt P24822); assay: PubChem AID 488874; assay type: functional
Sequence of Intestinal-type alkaline phosphatase (Mus musculus, UniProt P24822) (P24822 whole entry): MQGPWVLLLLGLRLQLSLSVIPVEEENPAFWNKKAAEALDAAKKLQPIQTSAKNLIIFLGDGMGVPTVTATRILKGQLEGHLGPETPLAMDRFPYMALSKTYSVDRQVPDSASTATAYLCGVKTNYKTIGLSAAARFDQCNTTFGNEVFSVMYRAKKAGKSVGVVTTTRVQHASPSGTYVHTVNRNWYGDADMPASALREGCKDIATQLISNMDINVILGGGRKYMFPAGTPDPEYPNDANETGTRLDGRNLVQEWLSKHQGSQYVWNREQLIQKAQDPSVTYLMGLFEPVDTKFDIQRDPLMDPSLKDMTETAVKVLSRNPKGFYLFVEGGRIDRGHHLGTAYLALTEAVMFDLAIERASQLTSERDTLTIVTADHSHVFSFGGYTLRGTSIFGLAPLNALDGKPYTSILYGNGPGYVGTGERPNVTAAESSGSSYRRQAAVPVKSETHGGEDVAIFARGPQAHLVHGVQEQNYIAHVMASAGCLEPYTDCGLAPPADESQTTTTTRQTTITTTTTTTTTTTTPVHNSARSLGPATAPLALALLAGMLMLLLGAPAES

[5] = biological target: T1, Intestinal-type alkaline phosphatase (Homo sapiens, UniProt P09923); assay: inhibition of human intestinal alkaline phosphatase – biochemical, luminescent, uHTS hits, set 2, dose response (AID 488793); assay type: functional
T1 sequence (P09923 whole entry): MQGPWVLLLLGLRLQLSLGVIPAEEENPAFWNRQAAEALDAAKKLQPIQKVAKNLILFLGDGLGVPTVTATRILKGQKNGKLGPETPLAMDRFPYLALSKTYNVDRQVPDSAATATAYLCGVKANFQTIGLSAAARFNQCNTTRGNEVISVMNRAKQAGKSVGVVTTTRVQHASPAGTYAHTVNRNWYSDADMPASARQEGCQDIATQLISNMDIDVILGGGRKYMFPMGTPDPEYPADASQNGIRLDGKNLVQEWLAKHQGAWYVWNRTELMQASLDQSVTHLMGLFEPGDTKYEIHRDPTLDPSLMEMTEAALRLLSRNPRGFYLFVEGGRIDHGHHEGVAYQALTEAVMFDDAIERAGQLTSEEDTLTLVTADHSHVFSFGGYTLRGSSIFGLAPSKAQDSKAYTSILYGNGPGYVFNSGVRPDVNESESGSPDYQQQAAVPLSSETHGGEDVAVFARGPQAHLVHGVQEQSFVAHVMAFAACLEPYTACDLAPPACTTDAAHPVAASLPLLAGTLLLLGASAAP

[6] = biological target: T1, Intestinal-type alkaline phosphatase; assay: Dose Response confirmation of uHTS hits from a small molecule inhibitors of human intestinal alkaline phosphatase via a luminescent assay. [Related pubchem assays (depositor defined):AID2544, AID2574]; assay type: functional
[7] = biological target: T2, Alkaline phosphatase, tissue-nonspecific isozyme (Homo sapiens, UniProt P05186); assay: inhibition of tissue-nonspecific alkaline phosphatase – biochemical, dose response (AID 488882); assay type: functional
T2 sequence (P05186 whole entry): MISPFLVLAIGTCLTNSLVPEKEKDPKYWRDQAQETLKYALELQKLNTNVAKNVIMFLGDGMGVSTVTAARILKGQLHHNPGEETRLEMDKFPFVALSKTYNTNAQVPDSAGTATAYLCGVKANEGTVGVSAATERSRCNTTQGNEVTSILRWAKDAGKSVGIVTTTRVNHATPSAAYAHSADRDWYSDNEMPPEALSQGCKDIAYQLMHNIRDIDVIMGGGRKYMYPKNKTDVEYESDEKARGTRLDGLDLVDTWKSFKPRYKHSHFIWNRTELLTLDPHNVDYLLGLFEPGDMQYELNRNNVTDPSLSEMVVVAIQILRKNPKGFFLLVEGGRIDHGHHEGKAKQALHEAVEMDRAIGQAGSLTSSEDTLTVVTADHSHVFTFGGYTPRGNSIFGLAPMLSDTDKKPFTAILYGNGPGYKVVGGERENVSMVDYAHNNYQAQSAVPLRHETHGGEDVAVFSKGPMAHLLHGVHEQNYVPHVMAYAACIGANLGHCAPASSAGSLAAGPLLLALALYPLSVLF

[8] = biological target: Sphingosine 1-phosphate receptor 5 (Homo sapiens, UniProt Q9H228); assay: Late stage counterscreen assay for S1P4 antagonists: Fluorescence dose response cell-based screening assay for antagonists of the Sphingosine 1-Phosphate Receptor 5 (S1P5). [Related pubchem assays (depositor defined):AID1510, AID1524, AID1692, AID1853, AID2332, AID489009, AID489017]; assay type: functional
Sequence of Sphingosine 1-phosphate receptor 5 (Q9H228 whole entry): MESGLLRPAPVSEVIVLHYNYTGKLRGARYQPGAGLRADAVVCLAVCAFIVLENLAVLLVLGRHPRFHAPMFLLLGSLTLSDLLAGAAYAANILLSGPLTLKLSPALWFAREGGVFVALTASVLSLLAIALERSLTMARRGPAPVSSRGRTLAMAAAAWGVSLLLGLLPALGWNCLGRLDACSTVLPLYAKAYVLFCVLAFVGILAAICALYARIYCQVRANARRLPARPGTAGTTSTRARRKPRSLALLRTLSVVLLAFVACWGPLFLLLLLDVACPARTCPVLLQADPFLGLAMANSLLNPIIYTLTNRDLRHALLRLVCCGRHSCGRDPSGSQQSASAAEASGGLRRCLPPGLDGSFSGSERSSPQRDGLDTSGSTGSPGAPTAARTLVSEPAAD

[9] = biological target: Sphingosine 1-phosphate receptor 3 (Homo sapiens, UniProt Q99500); assay: Late stage counterscreen assay for S1P4 antagonists: Fluorescence dose response cell-based screening assay for antagonists of the Sphingosine 1-Phosphate Receptor 3 (S1P3). [Related pubchem assays (depositor defined):AID1510, AID1524, AID1692, AID1853, AID2332, AID489009, AID489017]; assay type: functional
Sequence of Sphingosine 1-phosphate receptor 3 (Q99500 whole entry): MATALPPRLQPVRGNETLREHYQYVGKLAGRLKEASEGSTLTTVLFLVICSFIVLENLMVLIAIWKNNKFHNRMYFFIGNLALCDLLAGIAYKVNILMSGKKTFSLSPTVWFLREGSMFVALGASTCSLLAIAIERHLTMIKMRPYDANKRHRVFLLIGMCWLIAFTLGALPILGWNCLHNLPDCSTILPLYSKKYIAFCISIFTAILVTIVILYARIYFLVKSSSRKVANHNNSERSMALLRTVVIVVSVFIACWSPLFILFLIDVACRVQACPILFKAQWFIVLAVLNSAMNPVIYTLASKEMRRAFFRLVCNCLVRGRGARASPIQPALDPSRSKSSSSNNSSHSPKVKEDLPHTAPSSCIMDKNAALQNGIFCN

[10] = biological target: Sphingosine 1-phosphate receptor 1 (Homo sapiens, UniProt P21453); assay: Late stage counterscreen assay for S1P4 antagonists: Fluorescence dose response cell-based screening assay for antagonists of the Sphingosine 1-Phosphate Receptor 1 (S1P1). [Related pubchem assays (depositor defined):AID1510, AID1524, AID1692, AID1853, AID2332, AID489009, AID489017]; assay type: functional
Sequence of Sphingosine 1-phosphate receptor 1 (P21453 whole entry): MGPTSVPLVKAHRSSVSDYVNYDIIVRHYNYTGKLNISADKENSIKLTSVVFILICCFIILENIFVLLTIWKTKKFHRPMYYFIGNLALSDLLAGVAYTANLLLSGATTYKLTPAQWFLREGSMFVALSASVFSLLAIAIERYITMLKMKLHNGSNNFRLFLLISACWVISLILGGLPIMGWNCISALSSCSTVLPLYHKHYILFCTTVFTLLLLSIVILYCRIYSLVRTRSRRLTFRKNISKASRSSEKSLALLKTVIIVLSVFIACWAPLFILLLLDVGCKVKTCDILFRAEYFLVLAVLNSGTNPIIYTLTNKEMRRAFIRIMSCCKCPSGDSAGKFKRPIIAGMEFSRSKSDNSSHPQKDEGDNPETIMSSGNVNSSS

[11] = biological target: Sphingosine 1-phosphate receptor 2 (Homo sapiens, UniProt O95136); assay: Late stage counterscreen assay for S1P4 antagonists: Fluorescence dose response cell-based screening assay for antagonists of the Sphingosine 1-Phosphate Receptor 2 (S1P2). [Related pubchem assays (depositor defined):AID1510, AID1524, AID1692, AID1853, AID2332, AID489009, AID489017]; assay type: functional
Sequence of Sphingosine 1-phosphate receptor 2 (O95136 whole entry): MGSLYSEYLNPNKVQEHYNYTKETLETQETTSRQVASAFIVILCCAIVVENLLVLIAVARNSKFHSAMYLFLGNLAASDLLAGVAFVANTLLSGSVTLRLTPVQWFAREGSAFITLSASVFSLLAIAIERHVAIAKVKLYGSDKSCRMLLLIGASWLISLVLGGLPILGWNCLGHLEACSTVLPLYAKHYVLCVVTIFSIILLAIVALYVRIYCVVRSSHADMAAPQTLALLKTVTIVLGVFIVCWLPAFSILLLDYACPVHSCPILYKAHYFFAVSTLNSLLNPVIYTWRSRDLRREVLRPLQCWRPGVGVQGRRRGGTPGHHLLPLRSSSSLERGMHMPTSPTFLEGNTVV

[12] = decrease of insulin promoter-GFP reporter – imaging, high-content screening, mouse beta cells (AID 1628); assay type: functional; settings: MIN6
[13] = MIN6 cell viability loss – mouse insulinoma, cytotoxicity control, dose response (AID 2122); assay type: functional;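 further: confirmatory high-throughput counterscreen run to flag cytotoxic compounds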
Trypanosoma cruzi = assay: anti-trypanosomal activity in host cells – cell-based, plate reader, dry powder, set 3, dose response (AID 493197); assay type: functional
[14] = T. cruzi infection blockers in NIH3T3 cells – beta-gal luminescence, NIH3T3 host cells, confirmation (AID 2630); assay type: functional, cell-based; settings: Mus musculus

Sequence of Tumor necrosis factor (P01375 whole entry, the tested form may be a part): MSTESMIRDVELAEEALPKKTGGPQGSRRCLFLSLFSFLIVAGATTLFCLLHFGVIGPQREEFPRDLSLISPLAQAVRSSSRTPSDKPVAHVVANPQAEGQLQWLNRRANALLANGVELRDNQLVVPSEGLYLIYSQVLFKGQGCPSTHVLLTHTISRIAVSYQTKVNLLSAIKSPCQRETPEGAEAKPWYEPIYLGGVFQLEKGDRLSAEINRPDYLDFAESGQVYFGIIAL

Structure (SMILES): COc1ccc(N2CCN(S(=O)(=O)c3ccc4c(c3)CC(C)N4C(C)=O)CC2)cc1 (stereo not given)
IC50 (Tumor necrosis factor): 4.3 µM (active)
IC50 [1]: 3.63 µM (active)
IC50 (HEK293): > 20 µM (inactive)

Structure (SMILES): Cc1ccc(-c2ccc(OC(=O)c3ccc(O)nc3)c(C)c2)cc1
AC50 [2]: 17.5 µM (active)
AC50 [3]: 29.1 µM (active)

AC50 (Trypsin): 18 µM (active)
AC50 (CAAX prenyl protease 1): 4.5 µM (active)
AC50 (CAAX prenyl protease 2): 11.4 µM (active)
Structure (SMILES): CCN(CC)CCn1c2ccccc2c2cnc(/N=C/N(C)C)c(C#N)c21

IC50 [4]: 62.9 µM (active)
IC50 [5]: 75.8 µM (active)
IC50 [6]: 47.6 µM (inactive)
IC50 [7]: 71.8 µM (active)
Structure (SMILES): O=C(/C=C/c1ccccc1O)c1ccco1

IC50 [8]: > 25 µM (inactive)
IC50 [9]: 10.5 µM (inactive)
IC50 [10]: > 25 µM (inactive)
IC50 [11]: 20.7 µM (inactive)
Structure (SMILES): COc1cccc(OC)c1NC(=O)c1ccc(-c2cc(Cl)ccc2Cl)o1

Structure (SMILES): CCn1c(SCc2ccccc2)nnc1-c1cccs1
IC50 [12]: 3.63 µM (active)
IC50 [13]: 2.36 µM (active)

Structure (SMILES): COc1ccc(CN2CCCC(C(=O)N3CCCC3)C2)c(OC)c1OC (stereo not given)
AC50 (Trypanosoma cruzi): 1.01 µM (active)
EC50 [14]: 0.042 µM (active)
